Results on six compounds are retold here after US20150250172A1, “USE OF ANTHRANILAMIDE COMPOUNDS IN SOIL AND SEED TREATMENT APPLICATION METHODS” (BASF SE, priority 2012, published 2015).

By mortality is commonly meant the share of the test organisms that died.

The test system of data set [1] is Western Corn Rootworm (Diabrotica virgifera virgifera). As to the kind of experiment: whole plant or invertebrate. Format: in vivo. The settings on record: 72 h, 50 ppm a.i./soil (w/w), second-instar larvae, 3 days after infestation, read-out: mortality in comparison with untreated controls.
Data set [2] concerns western corn rootworm (Chrysomelidae: Diabrotica virgifera virgifera). As to the kind of experiment: Plant emergence, shoot height and root mass, corn seed treatment against western corn rootworm (B.2.2). The class given is in vivo. The settings on record: for % Control (Based on root mass relative to infested and uninfested control) / % Control (Based on shoot height relative to infested and uninfested control) / Mean Root Mass / Mean Shoot Height: 7 days after infestation. Here is the method:
B.2.2 Plant Emergence, Shoot Height and Root Mass in Treatment Against Western Corn Rootworm (Chrysomelidae: Diabrotica virgifera virgifera). The compounds according to the invention, in formulated form, and other diamide compounds (chlorantraniliprole: Altacor® and Coragen®) were tested for activity against western corn rootworm. Pots were filled with soil mixture (1:1 loamy sand:sand) and watered prior to treatment and planting. Formulations were diluted in distilled water and then applied to 20 g corn seed in a volume of 188 μl in a Hege 11 liquid seed treater and spun for 30 s. One seed was planted per pot 1-3 days after treatment. Five replicates (pots) were prepared for each treatment. Pots were arranged in a randomized complete block design in the greenhouse and top watered daily. At 5-6 days after planting (DAP), 12 western corn rootworm larvae (2nd instar) were infested in each pot. After infestation, pots were maintained in a growth chamber (26° C., 10 hours light:14 hours dark) and bottom-watered as needed. Plant emergence and shoot phytotoxicity were evaluated 5 DAP. Shoot height and fresh root mass were evaluated 7 days after infestation (DAI).

Data set [3] concerns Black Cutworm (Agrotis ipsilon). The experiment in a line: whole plant or invertebrate. The class given is in vivo. The settings on record: 72 h, 5 ppm a.i./soil (w/w), second-instar larvae, 3 days after infestation, read-out: mortality in comparison with untreated controls.
Data set [4] concerns seedcorn maggot (Anthomyiidae: Delia platura). The experiment in a line: Root length of cucumber in treatment against seedcorn maggot (B.2.1). The settings on record: 9 days after treatment, 7 days after infestation; for % Control (Relative to infested and uninfested solvent blank): cucumber root length; for Mean Root Length: cucumber.
Setting [5] is: Table EXP-B.2.2-1, 0.5 g ai/kg seed, 13 days after planting.
Setting [6] is: Table EXP-B.2.2-1, 1.0 g ai/kg seed, 13 days after planting.
The mark [7] stands for this setting: Table EXP-B.2.2-1, corn seed treatment, 0.5 g ai/kg seed.
Where [8] appears, read: Table EXP-B.2.2-1, corn seed treatment, 1.0 g ai/kg seed.
Setting [9] is: Table EXP-B.2.2-2, 0.5 g ai/kg seed, 12 days after planting.
Where [10] appears, read: Table EXP-B.2.2-2, 1.0 g ai/kg seed, 12 days after planting.
Where [11] appears, read: Table EXP-B.2.2-2, corn seed treatment, 0.5 g ai/kg seed.
[12] abbreviates: Table EXP-B.2.2-2, corn seed treatment, 1.0 g ai/kg seed.
[13] abbreviates: Table EXP-B.2.2-2, 1.5 g ai/kg seed, 12 days after planting.

On to `CCS(CC)=NC(=O)c1cc(Cl)cc(C)c1NC(=O)c1cc(C(F)(F)F)nn1-c1ncccc1Cl` [Compound I-11, 2-(3-chloro-2-pyridyl)-N-[2-methyl-4-chloro-6-[(diethyl-λ^4-sulfanylidene)carbamoyl]phenyl]-5-(trifluoromethyl)pyrazole-3-carboxamide], for which, in data set [1], the mortality at 50 ppm was > 70%. Further, the “% Control (Based on root mass relative to infested and uninfested control)” value is listed as 100% in data set [2] (setting [5]), 100% in data set [2] (setting [6]), 12% in data set [2] (setting [9]) and 48% in data set [2] (setting [10]). Also, the “% Control (Based on shoot height relative to infested and uninfested control)” value was 36% in data set [2] (setting [5]), 100% in data set [2] (setting [6]), 49% in data set [2] (setting [9]) and 100% in data set [2] (setting [10]). The “Mean Root Mass” value in data set [2] (setting [5]) turned out to be 0.680 g; in data set [2] (setting [6]), 0.678 g; in data set [2] (setting [9]), 0.490 g; in data set [2] (setting [10]) it was 0.631 g. The “Mean Shoot Height” value in data set [2] (setting [5]) amounted to 26.7 cm; in data set [2] (setting [6]) it was 33.8 cm; in data set [2] (setting [9]) it was 27.3 cm; in data set [2] (setting [10]) it was 33.8 cm. Further, the “Plant Emergence (%) 5 days after planting” value (shortened to “Plant Emergence (%) 5 days”) in data set [2] (setting [7]), in data set [2] (setting [8]), in data set [2] (setting [11]) and in data set [2] (setting [12]) was 100% throughout. For the same compound, the mortality at 5 ppm in data set [3] was > 70%.

Take `CCS(CC)=NC(=O)c1cc(Cl)cc(Cl)c1NC(=O)c1cc(C(F)(F)F)nn1-c1ncccc1Cl` [Compound I-16, 2-(3-chloro-2-pyridyl)-N-[2,4-dichloro-6-[(diethyl-λ^4-sulfanylidene)carbamoyl]phenyl]-5-(trifluoromethyl)pyrazole-3-carboxamide]: the mortality at 50 ppm in data set [1] is > 70%. For the same compound, in data set [4] (rate 1 ppm), the “% Control (Relative to infested and uninfested solvent blank)” value is given as 100%. In data set [4] (rate 1 ppm), the “Mean Root Length” value worked out at 11.0 cm. Besides, the “% Control (Based on root mass relative to infested and uninfested control)” value in data set [2] (setting [5]) was 37%; in data set [2] (setting [6]), 40%; in data set [2] (setting [9]), 38%; in data set [2] (setting [10]), 68%. In addition, the “% Control (Based on shoot height relative to infested and uninfested control)” value in data set [2] (setting [5]) came out at 76%; in data set [2] (setting [6]) it was 58%; in data set [2] (setting [9]), 100%; in data set [2] (setting [10]), 83%. For the same compound, the “Mean Root Mass” value in data set [2] (setting [5]) came to 0.541 g; in data set [2] (setting [6]), 0.547 g; in data set [2] (setting [9]), 0.590 g; in data set [2] (setting [10]), 0.705 g. The “Mean Shoot Height” value in data set [2] (setting [5]) was determined as 30.2 cm; in data set [2] (setting [6]) it was 28.6 cm; in data set [2] (setting [9]), 35.3 cm; in data set [2] (setting [10]), 31.2 cm. Also, the “Plant Emergence (%) 5 days” value in data set [2] (setting [7]), in data set [2] (setting [8]), in data set [2] (setting [11]) and in data set [2] (setting [12]) was 100% in each case. The mortality at 5 ppm in data set [3] was > 70%.

`Cc1cc(Cl)cc(C(=O)N=S(C(C)C)C(C)C)c1NC(=O)c1cc(C(F)(F)F)nn1-c1ncccc1Cl` [Compound I-21, 2-(3-chloro-2-pyridyl)-N-[2-methyl-4-chloro-6-[(bis-2-propyl-λ^4-sulfanylidene)carbamoyl]phenyl]-5-(trifluoromethyl)pyrazole-3-carboxamide]: in data set [1], the mortality at 50 ppm was > 70%. Also, the “% Control (Based on root mass relative to infested and uninfested control)” value in data set [2] (setting [5]) was 100%; in data set [2] (setting [6]), 100%; in data set [2] (setting [9]), 33%; in data set [2] (setting [13]) it was 40%. Also, the “% Control (Based on shoot height relative to infested and uninfested control)” value was found to be 49% in data set [2] (setting [5]), 69% in data set [2] (setting [6]), 86% in data set [2] (setting [9]) and 83% in data set [2] (setting [13]). Moreover, the “Mean Root Mass” value in data set [2] (setting [5]) is reported as 0.688 g; in data set [2] (setting [6]), 0.701 g; in data set [2] (setting [9]), 0.570 g; in data set [2] (setting [13]), 0.598 g. Besides, the “Mean Shoot Height” value in data set [2] (setting [5]) was found to be 27.8 cm; in data set [2] (setting [6]), 29.6 cm; in data set [2] (setting [9]), 31.6 cm; in data set [2] (setting [13]), 31.2 cm. Further, the “Plant Emergence (%) 5 days” value in data set [2] (setting [7]) turned out to be 100%; in data set [2] (setting [8]), 100%; in data set [2] (setting [11]), 100%; in data set [2] (Table EXP-B.2.2-2, corn seed treatment, 1.5 g ai/kg seed), 100%. In data set [3], the mortality at 5 ppm was > 70%.

On to `CC(C)S(=NC(=O)c1cc(Cl)cc(Cl)c1NC(=O)c1cc(C(F)(F)F)nn1-c1ncccc1Cl)C(C)C` [Compound I-26, 2-(3-chloro-2-pyridyl)-N-[2,4-dichloro-6-[(bis-2-propyl-λ^4-sulfanylidene)carbamoyl]phenyl]-5-(trifluoromethyl)pyrazole-3-carboxamide], for which, in data set [1], the mortality at 50 ppm was > 70%. Moreover, the mortality at 5 ppm in data set [3] is > 70%.

Consider `CNC(=O)c1cc(Cl)cc(C)c1NC(=O)c1cc(Br)nn1-c1ncccc1Cl` [chlorantraniliprole], for which, in data set [4] (rate 1 ppm), the “% Control (Relative to infested and uninfested solvent blank)” value came out at 49%; the “Mean Root Length” value was found to be 8.4 cm. In addition, in data set [4] (rate 10 ppm), the “% Control (Relative to infested and uninfested solvent blank)” value is reported as 63%; the “Mean Root Length” value came out at 9.0 cm.

For `CNC(=O)c1cc(C#N)cc(C)c1NC(=O)c1cc(Br)nn1-c1ncccc1Cl` [cyantraniliprole], in data set [4] (rate 1 ppm), the “% Control (Relative to infested and uninfested solvent blank)” value was 19%; the “Mean Root Length” value amounted to 7.1 cm. Moreover, in data set [4] (rate 10 ppm), the “% Control (Relative to infested and uninfested solvent blank)” value is 93%; the “Mean Root Length” value is on record as 10.3 cm.
